Results published in patent US20090118286A1, “Heterobicyclic Acrylamides” (Bayer Cropscience AG, priority 2005, published 2009).
Where two headings read alike, the source gives them in different places.

How the values were obtained:
[1] = system: caterpillars of the army worm (Spodoptera frugiperda); assay: Spodoptera frugiperda test, SPODFR spray treatment; format: in vivo; details: foliar, 168 h, 500 g a. i./ha, spray treatment of maize leaf discs, 7 d, read-out: % 7 d (effect in %, caterpillars killed)
Method: [table] To produce a suitable preparation of active compound, 1 part by weight of active compound is mixed with the stated amounts of solvents and emulsifier, and the concentrate is diluted with emulsifier-containing water to the desired concentration. Discs of maize leaves (Zea mays) are sprayed with a preparation of active compound of the desired concentration and, after drying, populated with caterpillars of the army worm (Spodoptera frugiperda). After the desired period of time, the effect in % is determined. 100% means that all caterpillars have been killed; 0% means that none of the caterpillars have been killed.

[2] = log P determination by HPLC (EEC Directive 79/831 Annex V.A8, gradient method); format: physicochemical; details: for chromatographic logP: HPLC, gradient method, acetonitrile/0.1% strength aqueous phosphoric acid or formic acid

Row | chromatographic logP ([2]; read-out: Physical data: log P) | SMILES | pest or weed control at 500 g/ha [1] [%] | other results
1 |  | O=C(/C=C/c1c(-c2ccc(F)cc2Cl)nc2sc(C(F)(F)F)nn12)NCc1ccc(F)cc1 [Example 0614] | 100 | 
2 | 3.55 | CC(NC(=O)/C=C/c1c(-c2ccccc2F)nc2sc(C(F)(F)F)nn12)C(F)(F)F (stereo not shown) [Example 0459] | 100 | 
3 | 3.51 | O=C(/C=C/c1c(-c2ccc(F)cc2Cl)nc2sc(C(F)(F)F)nn12)NCCC(F)(F)F [Example 0604] | 100 | 
4 |  | O=C(/C=C/c1c(-c2ccccc2Cl)nc2sc(C(F)(F)Cl)nn12)Nc1ccc(F)cc1 [Example 0767] | 100 | chromatographic logP ([2]; read-out: Physical data: logP): 4.19
5 | 3.32 | CC(C)NC(=O)/C=C/c1c(-c2ccc(F)cc2Cl)nc2sc(C(F)(F)F)nn12 [Example 0581] | 100 | 
6 |  | CCC(CC)NC(=O)/C=C/c1c(-c2ccccc2Cl)nc2sc(C(F)(F)F)nn12 [Example 0215] | 100 | chromatographic logP ([2]; read-out: Physical data (logP)): 3.72
7 | 3.59 | CCC(C)NC(=O)/C=C/c1c(-c2ccccc2C)nc2sc(C(F)(F)F)nn12 (stereo not shown) [Example 0238] | 100 | 
8 |  | CCC(CC)NC(=O)/C=C/c1c(-c2ccccc2Cl)nc2sc(C(F)(F)Cl)nn12 [Example 0781] | 100 | chromatographic logP ([2]; read-out: Physical data: logP): 3.95
9 | 3.9 | Cc1ccccc1-c1nc2sc(C(F)(F)F)nn2c1/C=C/C(=O)NC(C)C(C)C (stereo not shown) [Example 0245] | 83 | 
10 | 2.79 | O=C(/C=C/c1c(-c2ccccc2Cl)nc2sc(C(F)(F)F)nn12)N1CCOCC1 [Example 0223] | 100 | 
11 |  | O=C(/C=C/c1c(-c2ccccc2Cl)nc2sc(C(F)(F)F)nn12)Nc1ccc(F)cc1 [Example 0201] | 100 | chromatographic logP ([2]; read-out: Physical data (logP)): 4.08
12 | 4.32 | CC(C)(C)NC(=O)/C=C/c1c(-c2ccc(Cl)cc2Cl)nc2sc(C(F)(F)F)nn12 [Example 0515] | 100 | 
13 | 3.94 | CCCC(C)NC(=O)/C=C/c1c(-c2ccccc2C)nc2sc(C(F)(F)F)nn12 (stereo not shown) [Example 0239] | 100 | 
14 |  | CC(C)C(C)NC(=O)/C=C/c1c(-c2ccccc2Cl)nc2sc(C(F)(F)F)nn12 (stereo not shown) [Example 0174] | 83 | chromatographic logP ([2]; read-out: Physical data (logP)): 3.76
15 |  | CC(NC(=O)/C=C/c1c(-c2ccc(Cl)cc2)nc2sc(C(F)(F)F)nn12)C(F)(F)F (stereo not shown) [Example 0024] | 100 | chromatographic logP ([2]; read-out: Physical data (logP)): 4.13
16 | 3.59 | CCC(CC)NC(=O)/C=C/c1c(-c2ccccc2F)nc2sc(C(F)(F)F)nn12 [Example 0499] | 83 | 
17 |  | CC(NC(=O)/C=C/c1c(-c2ccccc2Cl)nc2sc(C(F)(F)F)nn12)C(F)(F)F (stereo not shown) [Example 0175] | 100 | chromatographic logP ([2]; read-out: Physical data (logP)): 3.63
18 | 3.68 | CCCC(C)NC(=O)/C=C/c1c(-c2ccccc2F)nc2sc(C(F)(F)F)nn12 (stereo not shown) [Example 0452] | 100 | 
19 |  | CC(NC(=O)/C=C/c1c(-c2cccc(Cl)c2)nc2sc(C(F)(F)F)nn12)C(F)(F)F (stereo not shown) [Example 0094] | 100 | 

Row | chromatographic logP ([2]; read-out: Physical data: log P) | SMILES | pest or weed control at 500 g/ha [1] [%] | other results
20 | 4.23 | CC(NC(=O)/C=C/c1c(-c2ccc(Cl)cc2Cl)nc2sc(C(F)(F)F)nn12)C(F)(F)F (stereo not shown) [Example 0527] | 100 | 
21 | 3.85 | CCC(CC)NC(=O)/C=C/c1c(-c2ccccc2C)nc2sc(C(F)(F)F)nn12 [Example 0286] | 100 | 
22 |  | CCC(C)NC(=O)/C=C/c1c(-c2ccccc2Cl)nc2sc(C(F)(F)F)nn12 (stereo not shown) [Example 0167] | 100 | chromatographic logP ([2]; read-out: Physical data (logP)): 3.46
23 | 4.63 | O=C(/C=C/c1c(-c2ccc(Cl)cc2Cl)nc2sc(C(F)(F)F)nn12)Nc1ccc(F)cc1 [Example 0553] | 100 | 
24 | 3.76 | Cc1ccccc1-c1nc2sc(C(F)(F)F)nn2c1/C=C/C(=O)NC(C)C(F)(F)F (stereo not shown) [Example 0246] | 100 | 
25 | 4.37 | CC(C)C(NC(=O)/C=C/c1c(-c2ccc(F)cc2Cl)nc2sc(C(F)(F)F)nn12)C(F)(F)F (stereo not shown) [Example 0599] | 100 | 
26 |  | CCC(CC)NC(=O)/C=C/c1c(-c2ccc(F)cc2Cl)nc2sc(C(F)(F)F)nn12 [Example 0638] | 100 | chromatographic logP ([2]; read-out: Physical data: logP): 3.89
27 | 2.96 | CC(C)NC(=O)/C=C/c1c(-c2ccccc2F)nc2sc(C(F)(F)F)nn12 [Example 0442] | 100 | 
28 | 3.24 | Cc1ccccc1-c1nc2sc(C(F)(F)F)nn2c1/C=C/C(=O)NC(C)C [Example 0229] | 100 | 
29 | 4.18 | CCN(CC)C(=O)/C=C/c1c(-c2ccc(Cl)cc2Cl)nc2sc(C(F)(F)F)nn12 [Example 0573] | 100 | 
30 | 3.72 | CC(NC(=O)/C=C/c1c(-c2ccc(F)cc2)nc2sc(C(F)(F)F)nn12)C(F)(F)F (stereo not shown) [Example 0317] | 100 | 
31 | 3.69 | CC(C)NC(=O)/C=C/c1c(-c2ccc(Cl)cc2Cl)nc2sc(C(F)(F)F)nn12 [Example 0513] | 100 | 
32 | 4.02 | CCCC(C)NC(=O)/C=C/c1c(-c2ccc(F)cc2Cl)nc2sc(C(F)(F)F)nn12 (stereo not shown) [Example 0591] | 100 | 
33 | 3.89 | CC(C)(C)NC(=O)/C=C/c1c(-c2ccc(F)cc2Cl)nc2sc(C(F)(F)F)nn12 [Example 0583] | 100 | 
34 | 2.45 | Cc1ccccc1-c1nc2sc(C(F)(F)F)nn2c1/C=C/C(=O)NC(C)c1ccccn1 (stereo not shown) [Example 0274] | 100 | 
35 |  | CC(C)C(C)NC(=O)/C=C/c1c(-c2ccccc2Cl)nc2sc(C(F)(F)Cl)nn12 (stereo not shown) [Example 0740] | 100 | chromatographic logP ([2]; read-out: Physical data: logP): 3.97
36 | 3.97 | O=C(/C=C/c1c(-c2ccc(F)cc2Cl)nc2sc(C(F)(F)F)nn12)NCC(F)(F)C(F)(F)F [Example 0610] | 100 | 
37 | 4.17 | O=C(/C=C/c1c(-c2ccc(F)cc2Cl)nc2sc(C(F)(F)F)nn12)Nc1ccc(F)cc1 [Example 0624] | 100 | 
38 | 3.51 | O=C(/C=C/c1c(-c2ccc(F)cc2Cl)nc2sc(C(F)(F)F)nn12)NCC(F)(F)F [Example 0603] | 100 | 

Row | chromatographic logP ([2]; read-out: Physical data: log P) | SMILES | pest or weed control at 500 g/ha [1] [%] | other results
39 | 3.11 | COCC(C)NC(=O)/C=C/c1c(-c2ccc(F)cc2Cl)nc2sc(C(F)(F)F)nn12 (stereo not shown) [Example 0592] | 100 | 
40 | 3.77 | C[C@@H](NC(=O)/C=C/c1c(-c2ccc(F)cc2Cl)nc2sc(C(F)(F)F)nn12)C(F)(F)F [Example 0608] | 100 | 
41 | 3.9 | CC(C)C(C)NC(=O)/C=C/c1c(-c2ccc(F)cc2Cl)nc2sc(C(F)(F)F)nn12 (stereo not shown) [Example 0597] | 100 | 
42 |  | CC(NC(=O)/C=C/c1c(-c2cc(Cl)ccc2Cl)nc2sc(C(F)(F)F)nn12)C(F)(F)F (stereo not shown) [Example 0792] | 100 | chromatographic logP ([2]; read-out: Physical data: logP): 4.13
43 |  | CCCC(C)NC(=O)/C=C/c1c(-c2ccccc2Cl)nc2sc(C(F)(F)F)nn12 (stereo not shown) [Example 0168] | 100 | chromatographic logP ([2]; read-out: Physical data (logP)): 3.85
44 |  | O=C(/C=C/c1c(-c2ccccc2Cl)nc2sc(C(F)(F)F)nn12)NC1CCC1 [Example 0153] | 100 | chromatographic logP ([2]; read-out: Physical data (logP)): 3.33
45 |  | CC(C)(C)NC(=O)/C=C/c1c(-c2ccccc2Cl)nc2sc(C(F)(F)F)nn12 [Example 0150] |  | Physical data (logP) [2]: 3.72
46 |  | CC(C)C(C)NC(=O)/C=C/c1c(-c2cccc(C(F)(F)F)c2)nc2sc(C(F)(F)F)nn12 (stereo not shown) [Example 0387] |  | Physical data: log P [2]: 4.46
47 |  | CC(NC(=O)/C=C/c1c(-c2ccccc2Cl)nc2sc(C(F)(F)Cl)nn12)C(F)(F)F (stereo not shown) [Example 0741] | 100 | chromatographic logP ([2]; read-out: Physical data: logP): 3.8
48 |  | CC(C)(C)NC(=O)/C=C/c1c(-c2ccccc2F)nc2sc(C(F)(F)F)nn12 [Example 0444] |  | Physical data: log P [2]: 3.55
49 |  | CCC(C)NC(=O)/C=C/c1c(-c2cccc(Cl)c2)nc2sc(C(F)(F)F)nn12 (stereo not shown) [Example 0087] |  | Physical data (logP) [2]: 3.99
50 |  | CCC(C)NC(=O)/C=C/c1c(-c2ccc(Cl)cc2)nc2sc(C(F)(F)F)nn12 (stereo not shown) [Example 0016] |  | Physical data (logP) [2]: 3.94
51 |  | O=C(O)/C=C/c1c(-c2ccc(Cl)nc2)nc2sc(C(F)(F)F)nn12 [VA125] |  | Physical data (logP) [2]: 2.42
52 |  | CC(C)CNC(=O)/C=C/c1c(-c2ccccc2Cl)nc2sc(-c3ccc(C(F)(F)F)cc3)nn12 [Example 0838] |  | Physical data: logP [2]: 4.37
53 |  | O=C(/C=C/c1c(-c2ccc(Cl)cc2)nc2sc(C(F)(F)F)nn12)NOCC1CC1 [Example 0060] |  | Physical data (logP) [2]: 3.59
54 |  | COCc1nn2c(/C=C/C(=O)NC(C)C(F)(F)F)c(-c3ccccc3Cl)nc2s1 (stereo not shown) [Example 0817] |  | Physical data: logP [2]: 2.93
55 |  | O=C(/C=C/c1c(-c2ccccc2Cl)nc2sc(C(F)(F)F)nn12)N1CCCCC1 [Example 0222] |  | Physical data: log P [2]: 3.76
56 |  | Cc1ccccc1-c1nc2sc(C(F)(F)F)nn2c1/C=C/C(=O)NC(C)(C)C [Example 0231] |  | Physical data: log P [2]: 3.85
57 |  | O=Cc1c(-c2cccnc2Cl)nc2sc(C(F)(F)F)nn12 [IVA116] |  | Physical data (logP) [2]: 2.14
